Where two headings read alike, the source gives them in different places.
Legend:
FER‐CD [1] = target: T1, FER‐CD (Arabidopsis thaliana, UniProt Q9SCZ4); conditions: read-out: Equilibrium dissociation constant (KD) of binding to FER-CD; MST, 25°C, 100 nM labelled FER-CD, means ± SEs (n = 3)
[2] = tested on: FER cytoplasmic domain (FER‐CD); experiment: FER-CD kinase activity (autophosphorylation), high-throughput screening, Kinase-Lumi luminescent ATP consumption; type: biochemical, Arabidopsis thaliana; conditions: in vitro autophosphorylation
Ralstonia solanacearum [3] = type: in vivo; conditions: Arabidopsis seedlings pretreated with 5 μM, 4 days after inoculation
Ralstonia solanacearum [4] = type: in vivo, tobacco; conditions: roots pretreated twice with 3 mL of 5 μM
Ralstonia solanacearum [5] = type: in vivo, tomato; conditions: roots pretreated twice with 3 mL of 5 μM
Meloidogyne incognita [6] = experiment: Rice root-knot nematode disease, preventive root treatment; type: in vivo; conditions: in vivo
Ralstonia solanacearum [7] = type: in vivo, tobacco; conditions: 5 μM irrigated twice two days after inoculation
Meloidogyne incognita [8] = experiment: Established rice root-knot nematode disease (inhibitor applied after inoculation); type: in vivo; conditions: in vivo
FRK1 = conditions: 5 μM for 24 h, confocal microscopy
PER5 = conditions: 5 μM for 24 h, confocal microscopy
PKC = tested on: PKC; design: method as in Omura et al., [2018]; conditions: ref Omura et al., [2018]; cited from earlier work
PKA = tested on: PKA; design: method as in Omura et al., [2018]; conditions: ref Omura et al., [2018]; cited from earlier work
[9] = tested on: ROS in Col‐0 and fer‐4 roots; experiment: ROS detection in plant roots (H2DCF-DA fluorescence); conditions: 5 μM for 15 min, vs DMSO and lapatinib
tobacco = experiment: Growth of tobacco (shoot and root fresh weight, Day 25); conditions: 5 μM irrigated twice
[10] = tested on: Arabidopsis Col‐0 and fer‐4 seedlings; experiment: Growth of Arabidopsis seedlings (root length, shoot fresh weight); conditions: 5 μM for 3 days, vs ddH2O (mock) and lapatinib
NtFER‐CD = experiment: NtFER-CD kinase activity (autophosphorylation); type: biochemical, Nicotiana tabacum; conditions: tobacco FER homologue
HERK1‐CD = experiment: HERK1-CD kinase activity (autophosphorylation); type: biochemical, Arabidopsis thaliana; conditions: 5 μM
ANJEA‐CD = experiment: ANJEA-CD kinase activity (autophosphorylation); type: biochemical, Arabidopsis thaliana; conditions: 5 μM
THE1‐CD = experiment: THE1-CD kinase activity (autophosphorylation); type: biochemical, Arabidopsis thaliana; conditions: 5 μM
FER‐CD [11] = target: T1, FER‐CD; experiment: biochemical

T1 sequence (Q9SCZ4 469-895): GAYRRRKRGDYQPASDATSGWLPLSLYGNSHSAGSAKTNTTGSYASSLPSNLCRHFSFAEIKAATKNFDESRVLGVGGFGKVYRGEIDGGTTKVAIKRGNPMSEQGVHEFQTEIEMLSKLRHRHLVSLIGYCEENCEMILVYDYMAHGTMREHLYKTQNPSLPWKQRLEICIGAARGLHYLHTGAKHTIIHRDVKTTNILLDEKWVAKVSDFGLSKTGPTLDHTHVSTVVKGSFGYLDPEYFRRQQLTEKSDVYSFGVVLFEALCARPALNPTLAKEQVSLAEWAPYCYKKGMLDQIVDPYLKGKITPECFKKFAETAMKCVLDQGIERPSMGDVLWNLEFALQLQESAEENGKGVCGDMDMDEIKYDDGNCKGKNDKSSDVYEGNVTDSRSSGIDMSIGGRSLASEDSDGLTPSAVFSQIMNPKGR

In the case of Nc1ncnc2c1ncn2[C@@H]1O[C@H](COP(=O)(O)OP(=O)(O)OP(=O)(O)O)[C@@H](O)[C@H]1O [ATP], the Kd (FER‐CD [1]) is reported as 18.4 µM.
In the case of CN[C@@H]1C[C@H]2O[C@@](C)([C@@H]1OC)n1c3ccccc3c3c4c(c5c6ccccc6n2c5c31)C(=O)NC4 [Staurosporine], the “Effect on FER kinase activity” value [2] is reported as “inhibited the kinase activity of FER”, the “Cotyledon bleaching caused by R. solanacearum” value (“Cotyledon bleaching caused” for short) (Ralstonia solanacearum [3]) is reported as “effectively prevented the cotyledon bleaching” and the “Control of tobacco bacterial wilt” value (Ralstonia solanacearum [4]) is reported as “alleviated soil‐borne diseases”. The “Control of tomato bacterial wilt” value (Ralstonia solanacearum [5]) was “alleviated soil‐borne diseases”, the “Control of rice root-knot nematode disease” value (Meloidogyne incognita [6]) was “alleviated soil‐borne diseases” and the “Effect on established tobacco bacterial wilt” value (Ralstonia solanacearum [7]) was “could not completely prevent the occurrence of the diseases or cure already diseased plants”. For the same compound, the “Effect on established rice root-knot nematode disease” value (Meloidogyne incognita [8]) was “could not completely prevent the occurrence of the diseases or cure already diseased plants”, the “Expression of FRK1 in roots” value (FRK1) was “observably enhanced the expression of FRK1” and the Root cell morphology (FRK1) was “caused expansion of the root cells”. The “Expression of PER5 in roots” value (PER5) was “elevated the expression of PER5 to a certain extent”, the IC50 (PKC) was […] and the IC50 (PKA) was […]. For the same compound, the “Production of ROS in Col-0 roots” value [9] was “significantly increased the production of ROS”, the “Growth (biomass) of tobacco shoots and roots” value (tobacco) was “did not observably affect the biomass” and the “Growth of roots and shoots of Arabidopsis Col-0 seedlings” value [10] was “severely inhibited root and shoot growth”.
For CS(=O)(=O)CCNCc1ccc(-c2ccc3ncnc(Nc4ccc(OCc5cccc(F)c5)c(Cl)c4)c3c2)o1 [lapatinib], the “Effect on FER kinase activity” value [2] was “did not affect FER kinase activity”, the “Inhibitory effect on NtFER-CD kinase activity” value (NtFER‐CD) was “ineffective” and the “Cotyledon bleaching caused” value (Ralstonia solanacearum [3]) was “turned white”. For the same compound, the “Expression of FRK1 in roots” value (FRK1) was “did not affect the expression levels” and the “Expression of PER5 in roots” value (PER5) was “did not affect the expression levels”.
With Cc1cc(Nc2ncc(F)c(NC3C4C=CC(C4)C3C(N)=O)n2)ccc1N1CCN(C)CC1 (stereo not drawn) [Cenisertib] the “Effect on FER kinase activity” value [2] was “inhibited the kinase activity of FER”, the “Inhibition rate of HERK1-CD kinase activity” value (HERK1‐CD) was “higher than 88%” and the “Inhibition rate of ANJEA-CD kinase activity” value (ANJEA‐CD) was “higher than 88%”. The “Inhibition rate of THE1-CD kinase activity” value (THE1‐CD) was “higher than 88%”, the “Cotyledon bleaching caused” value (Ralstonia solanacearum [3]) was “turned white” and the “Expression of FRK1 in roots” value (FRK1) was “increased the expression of FRK1”. For the same compound, the “Expression of PER5 in roots” value (PER5) was “did not affect the expression of PER5”, the Kd (FER‐CD [11]) was 1.97 µM and the “Production of ROS in Col-0 roots” value [9] was “had no effect on ROS levels”.
